Results published in patent publication US9820483B2, “Microbial composition” (Rohm and Haas Company, priority 2011, dated 2017).

Key:
[1] = system: Escherichia coli (E. coli—ATCC #10536); assay: Automated assessment of efficacy in model surfactant base (2.85% sodium cocoyl glycinate + 1.85% sodium lauroamphoacetate, pH 10), 15 seconds exposure, delta OD450/OD590 in D/E quench; type: cell-based
Protocol: Solutions were prepared such that the concentrations of the surfactant components and test actives were 1.1× the final desired concentration in order to allow for dilution with the bacterial inoculum in the test. The solutions were manually adjusted to pH 10.0 by dropwise addition of sodium hydroxide solution, as measured with a pH meter at ambient temperature.
Tests were conducted using standard microtiter plate assays using an automated liquid handling system. 270 μl of the surfactant test solution was pipetted into each well of the microtitre plate and 30 μl of the bacterial suspension was then added. After exactly 15 seconds of bacterial exposure, a 30 μl volume of bacterial cells was withdrawn and transferred to 270 μl of D/E quench solution. After 5 minutes in the D/E quench, the optical density (OD) was measured for each plate in turn at two specific wavelengths (450 nm and 590 nm). These provide a dual check of antimicrobial activity, as the OD450 reading is specific for the yellow colour of D/E quench when bacterial growth is observed, whereas OD590 is specific for the initial purple colour of the D/E quench which is retained if no bacterial growth is observed. After the time zero OD measurements, plates were then incubated at 37° C. overnight (16 hours) before repeating the OD measurements. Delta OD values were calculated by subtracting […]. Bacterial growth is observed as an increase in OD450 and a decrease in ΔOD590. To identify antibacterially efficacious systems (those preventing appreciable bacterial growth after incubation), the following threshold changes in OD readings have been adopted: if (1). OD450 increases by less than 0.2 absorbance unit on incubation and (2). OD590 decreases by less than 0.35 unit on incubation. Conversely, where OD450 increases by more than 0.2 AU and OD590 decreases by more than 0.35 unit after incubation, corresponding to a colour shift from purple to yellow, the test system allows bacterial growth and is not deemed efficacious. Four replicate measurements in the same plate have been made for each test system. The number of replicate wells showing either bacterial growth or no growth is also readily assessed by eye by following the colour change.
Dose responses for individual components and binary mixtures of actives at a fixed concentration ratio were generated by sequential dilution of liquors with further surfactant solution to obtain a series of endpoints.
In some selected cases, the combinations were also tested at the weight ratio 1:1.
The method used was the same as in the above Table.

E. coli ATCC #10536 = assay: Synergy test: high resolution MBC microtiter plate assay in phosphate buffer containing 35% dipropylene glycol, 15 seconds contact; type: cell-based, Escherichia coli; settings: for MBC of the component acting alone (QA or QB; Qa or Qb with the other component at 0): E. coli 10536, complete kill in 15 seconds, phosphate buffer with 35% DPG
From the text: One measure of synergy is the industrially accepted method described by Kull, F. C.; Eisman. P. C.; Sylwestrowicz, H. D. and Mayer, R. L., in Applied Microbiology 9:538-541 (1961), using the ratio determined by the formula: Qa/QA÷Qb/QB=Synergy Index (“SI”) wherein: QA=concentration of compound A (first component) in percent, acting alone, which produced an end point (MBC of Compound A). […]=concentration of compound A in percent, in the mixture, which produced an end point. QB=concentration of compound B (second component) in percent, acting alone, which produced an end point (MBC of Compound B). Qb=concentration of compound B in percent, in the mixture, which produced an end point.
When the sum of Qa/QA and Qb/QB is greater than one, antagonism is indicated. […] The lower the SI, the greater is the synergy shown by that particular mixture. The minimum biocidal concentration (MBC) of a microbicide is the lowest concentration tested under a specific set of conditions that provides complete kill of the tested microorganisms.
Synergy tests were conducted using standard microtiter plate assays with phosphate buffer containing 35% dipropylene glycol (DPG). In this method, a wide range of combinations of chemicals was tested by conducting high resolution MBC assays of Component (A) in the presence of various concentrations of Component (B). High resolution MBCs were determined by adding varying amounts of microbicide to one column of a microtiter plate and doing subsequent ten-fold dilutions using an automated liquid handling system to obtain a series of closely spaced endpoints. The MBC plate was inoculated one column at a time with the test microorganism. An aliquot of the inoculated well was transferred at 15 seconds to a plate containing a neutralizing agent (D/E Neutralizing Broth), mixed and held for 5 minutes before being transferred to a growth plate containing trypticase soy broth (TSB). The TSB plate was incubated at 37° C. and read for the presence/absence of growth at 24 hours. The lowest level tested that provided complete kill (as evidenced by no growth in the microtitre plate) of the test organisms in 15 seconds is the minimum biocidal concentration (MBC).
The synergy of the combinations of the present invention was determined against a bacterium, Esherichia coli (E. coli—ATCC #10536), at a concentration of approximately 1×10^8 bacteria per mL. This microorganism is representative of natural contaminants in many consumer and industrial applications.

Structure (SMILES) | Δ OD 590 nm = OD590 (time = 16 hours) − OD590 (time zero), Mean ([1]; single active at 0.1% w/v) | No. of replicates showing growth (out of 4) ([1]; single active at 0.2% w/v) | Δ OD 590 nm = OD590 (time = 16 hours) − OD590 (time zero), Mean ([1]; single active at 0.2% w/v) | ΔOD 450 nm = OD450 (time = 16 hours) − OD450 (time zero), Mean ([1]; single active at 0.2% w/v) | MBC of the component acting alone (QA or QB; Qa or Qb with the other component at 0) (E. coli ATCC #10536) [weight %] | Δ OD 590 nm = OD590 (time = 16 hours) − OD590 (time zero), Mean ([1]; single active at […] w/v) | ΔOD 450 nm = OD450 (time = 16 hours) − OD450 (time zero), Mean ([1]; single active at […] w/v) | also measured
CC(C)(C)c1ccccc1O [2-tert-butylphenol] | 0.23 | 0 | 0.07 | −0.04 |  |  |  | Δ OD 590 nm = OD590 (time = 16 hours) − OD590 (time zero), Mean ([1]; single active at 0.05% w/v): 0.22; No. of replicates showing growth (out of 4) ([1]; single active at 0.1% w/v): 4; ΔOD 450 nm = OD450 (time = 16 hours) − OD450 (time zero), Mean ([1]; single active at 0.1% w/v): −1.55; Δ OD 590 nm = OD590 (time = 16 hours) − OD590 (time zero), Mean ([1]; single active at 0.125% w/v): 0.30
CC(C)(C)c1cccc(O)c1 [3-tert-butylphenol] |  |  | 0.64 | −0.47 | 0.3 |  |  | Δ OD 590 nm = OD590 (time = 16 hours) − OD590 (time zero), Mean ([1]; single active at 0.125% w/v): 0.65; ΔOD 450 nm = OD450 (time = 16 hours) − OD450 (time zero), Mean ([1]; single active at 0.125% w/v): −0.45
CCCCc1ccc(O)cc1 [4-n-butylphenol] | 0.53 |  | 0.58 | −0.54 |  | 0.54 | −0.61 | ΔOD 450 nm = OD450 (time = 16 hours) − OD450 (time zero), Mean ([1]; single active at 0.1% w/v): −0.61
CCC1CCC(C(CO)CO)CC1 (centres unmarked) |  |  |  |  |  | 0.56 | −0.54 | No. of replicates showing growth (out of 4) ([1]; single active at 0.4% w/v): 4; Δ OD 590 nm = OD590 (time = 16 hours) − OD590 (time zero), Mean ([1]; single active at 0.4% w/v): 0.56; ΔOD 450 nm = OD450 (time = 16 hours) − OD450 (time zero), Mean ([1]; single active at 0.4% w/v): −0.49; No. of replicates showing growth (out of 4) ([1]; single active at 0.5% w/v): 4; Δ OD 590 nm = OD590 (time = 16 hours) − OD590 (time zero), Mean ([1]; single active at 0.5% w/v): 0.590; ΔOD 450 nm = OD450 (time = 16 hours) − OD450 (time zero), Mean ([1]; single active at 0.5% w/v): −0.48; No. of replicates showing growth (out of 4) ([1]; single active at […] w/v): 4
CCCC(=O)OC(C)(C)C1CC=C(C)CC1 (centres unmarked) [2-(4-methylcyclohex-3-enyl)propan-2-yl butyrate] |  |  |  |  | 2.4 |  |  | 
Cc1cc(O)cc(C(C)C)c1 [3-isopropyl-5-methylphenol] |  |  |  |  | 0.3 |  |  | 
CC(=O)O[C@H]1C[C@H](C)CC[C@H]1C(C)C [(1S,2S,5R)-2-isopropyl-5-methylcyclohexyl acetate] |  |  |  |  | 2.4 |  |  | 
C/C=C/c1ccccc1O [(E)-2-(prop-1-enyl)phenol] | 0.59 | 4 | 0.63 | −0.53 |  | 0.58 | −0.57 | No. of replicates showing growth (out of 4) ([1]; single active at 0.1% w/v): 4; ΔOD 450 nm = OD450 (time = 16 hours) − OD450 (time zero), Mean ([1]; single active at 0.1% w/v): −0.60; No. of replicates showing growth (out of 4) ([1]; single active at […] w/v): 4
CCC(C)c1ccccc1O (centres unmarked) [2-sec-butylphenol] | 0.36 |  |  |  | 0.3 | 0.50 | −0.41 | Δ OD 590 nm = OD590 (time = 16 hours) − OD590 (time zero), Mean ([1]; single active at 0.05% w/v): 0.30; ΔOD 450 nm = OD450 (time = 16 hours) − OD450 (time zero), Mean ([1]; single active at 0.05% w/v): −1.50
Cc1ccc(C(C)C)cc1O [5-isopropyl-2-methylphenol] |  | 4 | 0.62 | −0.52 |  | 0.64 | −0.52 | No. of replicates showing growth (out of 4) ([1]; single active at 0.125% w/v): 4; Δ OD 590 nm = OD590 (time = 16 hours) − OD590 (time zero), Mean ([1]; single active at 0.125% w/v): 0.63; ΔOD 450 nm = OD450 (time = 16 hours) − OD450 (time zero), Mean ([1]; single active at 0.125% w/v): −0.50; No. of replicates showing growth (out of 4) ([1]; single active at […] w/v): 4; SI (Synergy Index) (E. coli ATCC #10536): 1.00
CC[C@H]1CC[C@H](C(CO)CO)CC1 [2-(trans-4-ethylcyclohexyl)propane-1,3-diol] |  |  |  |  |  |  |  | MBC ([1]; Escherichia coli, ATCC10536, 15 s, in 2.85% sodium cocoyl glycinate + 1.85% sodium lauroamphoacetate solution at pH 10, E. coli, read-out: MBC): > 2000 µg/mL
Cc1cc(O)ccc1C(C)C [4-isopropyl-3-methylphenol] | 0.24 | 4 | 0.36 | −1.41 | 0.3 |  |  | Δ OD 590 nm = OD590 (time = 16 hours) − OD590 (time zero), Mean ([1]; single active at 0.05% w/v): 0.25; ΔOD 450 nm = OD450 (time = 16 hours) − OD450 (time zero), Mean ([1]; single active at 0.05% w/v): −1.52; ΔOD 450 nm = OD450 (time = 16 hours) − OD450 (time zero), Mean ([1]; single active at 0.1% w/v): −1.50
CCCc1cccc(O)c1 [3-n-propylphenol] |  | 4 | 0.56 | −0.57 |  | 0.56 | −0.63 | No. of replicates showing growth (out of 4) ([1]; single active at 0.125% w/v): 4; Δ OD 590 nm = OD590 (time = 16 hours) − OD590 (time zero), Mean ([1]; single active at 0.125% w/v): 0.57; ΔOD 450 nm = OD450 (time = 16 hours) − OD450 (time zero), Mean ([1]; single active at 0.125% w/v): −0.59
C=C(C)[C@@H]1CC[C@@H](C)C[C@H]1O [(1R,2S,5R)-5-methyl-2-(prop-1-en-2-yl)cyclohexanol] |  |  |  |  | 0.5 |  |  | 
CCCC1CCC(C(CO)CO)CC1 [2-((1S,4R)-4-propylcyclohexyl)propane-1,3-diol] |  |  |  |  | 2.5 |  |  | 
CCC(C)c1ccc(O)cc1 (centres unmarked) [4-sec-butylphenol] |  | 4 | 0.59 | −0.56 | 0.2 | 0.60 | −0.53 | Δ OD 590 nm = OD590 (time = 16 hours) − OD590 (time zero), Mean ([1]; single active at 0.125% w/v): 0.60; ΔOD 450 nm = OD450 (time = 16 hours) − OD450 (time zero), Mean ([1]; single active at 0.125% w/v): −0.56
CCCc1ccc(O)cc1 [4-propylphenol] | 0.34 |  | 0.43 | −1.49 |  |  |  | 
